The record followed here is publication PMC11369081, “Molecular mechanism of prolactin-releasing peptide recognition and signaling via its G protein-coupled receptor” (Cell Discovery, 2024).

Assay type in all cases: cell-based
The target of one assay is T1, PrRPR WT (Homo sapiens, UniProt P49683).
T1 construct: expressed in transfected cells; host or cells: AD293 cells
T1 sequence (P49683 1-370): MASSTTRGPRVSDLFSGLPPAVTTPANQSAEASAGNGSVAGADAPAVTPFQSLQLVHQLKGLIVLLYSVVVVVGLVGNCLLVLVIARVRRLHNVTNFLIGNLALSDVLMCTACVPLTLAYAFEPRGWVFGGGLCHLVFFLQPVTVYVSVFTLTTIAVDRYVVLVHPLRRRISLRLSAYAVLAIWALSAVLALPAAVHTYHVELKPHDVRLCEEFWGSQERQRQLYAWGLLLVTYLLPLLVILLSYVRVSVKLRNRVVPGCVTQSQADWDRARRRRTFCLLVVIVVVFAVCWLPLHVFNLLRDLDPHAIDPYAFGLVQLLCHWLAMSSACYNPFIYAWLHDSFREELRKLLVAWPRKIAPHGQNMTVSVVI
Put plainly: BRET2 Gq dissociation, WT. Particulars: WT (reference for normalisation), Gq-coupling, AD293 cells; n = 3. As for the experimental part: (§1) AD293 cells (Agilent) were propagated in Dulbecco’s Modified Eagle Medium (DMEM, Thermo Fisher Scientific), enriched with 10% fetal bovine serum (FBS, Thermo Fisher Scientific), and maintained at 37 °C in a 5% CO2 environment. Cells were then seeded in 6-well dishes at a density of 130,000–150,000 cells per mL and allowed to incubate overnight. On the next day, cells were transfected with plasmids at a 1:1:1:1 ratio for receptor:Gα-RLuc8:Gβ:Gγ-GFP2[52]. PEI MAX 40 K (BIOHUB) was utilized to form complex with the plasmids at a ratio of 3 µL PEI per µg of plasmids, in OptiMEM (Gibco-Thermo Fisher Scientific) at a concentration of 10 ng plasmids per µL OptiMEM. After 24 h of incubation, the culture was harvested by centrifugation with PBS. The cell suspension was then allocated into a white 384-well plate at a volume of 30 µL per well, followed by the addition of 10 µL of freshly prepared 50 µM coelenterazine 400a (Yeasen). […] Plates were subsequently read in a BioTek Synergy H1 microplate reader (BioTek) equipped with 395 nm (RLuc8-coelenterazine 400a) and 510 nm (GFP2) emission filters. BRET2 ratios were calculated as the ratio of the GFP2 emission to RLuc8 emission. […]
(§2) Supplementary Fig. S4 | Effects of mutations in the ligand-binding pocket and G protein intereface of Gq coupled PrRPR by BRET2 assay. […] BRET2 assay signals were measured after stimulation with PrRP20. […]
Background: In BRET a luciferase serves as donor, and the signal depends on an acceptor being close.

The next assay addresses T2, PrRPR Y120A (Homo sapiens, UniProt P49683, Y120A).
T2 construct: expressed in transfected cells; host or cells: AD293 cells
Kind of assay: BRET2 Gq dissociation, Y120A. Particulars: Y120A (2.64), Gq-coupling, AD293 cells; mean ± S.E.M., n = 3; P <0.0001 vs WT; read-out: BRET2 pEC50 (converted). As to the method: as §1, §2

The next assay has as its target T3, PrRPR V208A (Homo sapiens, UniProt P49683, V208A).
T3 construct: expressed in transfected cells; host or cells: AD293 cells
Kind of assay: BRET2 Gq dissociation, V208A. Particulars: V208A (ECL2), Gq-coupling, AD293 cells; mean ± S.E.M., n = 3; P 0.0347 vs WT; read-out: BRET2 pEC50 (converted). As to the method: as §1, §2

A further assay deals with T4, PrRPR W127A (Homo sapiens, UniProt P49683, W127A).
T4 construct: expressed in transfected cells; host or cells: AD293 cells
Kind of assay: BRET2 Gi dissociation, W127A. Conditions: W127A (23.50), Gi-coupling, AD293 cells; mean ± S.E.M., n = 3; P <0.0001 vs WT; read-out: BRET2 pEC50 (converted). As for the experimental part: (§3) AD293 cells (Agilent) were propagated in Dulbecco’s Modified Eagle Medium (DMEM, Thermo Fisher Scientific), enriched with 10% fetal bovine serum (FBS, Thermo Fisher Scientific), and maintained at 37 °C in a 5% CO2 environment. Cells were then seeded in 6-well dishes at a density of 130,000–150,000 cells per mL and allowed to incubate overnight. On the next day, cells were transfected with plasmids at a 1:1:1:1 ratio for receptor:Gα-RLuc8:Gβ:Gγ-GFP2[52]. PEI MAX 40 K (BIOHUB) was utilized to form complex with the plasmids at a ratio of 3 µL PEI per µg of plasmids, in OptiMEM (Gibco-Thermo Fisher Scientific) at a concentration of 10 ng plasmids per µL OptiMEM. After 24 h of incubation, the culture was harvested by centrifugation with PBS. The cell suspension was then allocated into a white 384-well plate at a volume of 30 µL per well, followed by the addition of 10 µL of freshly prepared 50 µM coelenterazine 400a (Yeasen). Following a 15-min equilibration period, cells were treated with 10 µL of ligand for an additional 5 min. Plates were subsequently read in a BioTek Synergy H1 microplate reader (BioTek) equipped with 395 nm (RLuc8-coelenterazine 400a) and 510 nm (GFP2) emission filters. BRET2 ratios were calculated as the ratio of the GFP2 emission to RLuc8 emission. Data were normalized to the baseline response of the ligand. […]

For another assay, the target named is T5, PrRPR Q141A (Homo sapiens, UniProt P49683, Q141A).
T5 construct: expressed in transfected cells; host or cells: AD293 cells
Put plainly: BRET2 Gi dissociation, Q141A. Conditions: Q141A (3.32), Gi-coupling, AD293 cells; mean ± S.E.M., n = 3; P 0.0002 vs WT; read-out: BRET2 pEC50 (converted). As to the method:
as §3

Another assay concerns the target T6, PrRPR V145A (Homo sapiens, UniProt P49683, V145A).
T6 construct: expressed in transfected cells; host or cells: AD293 cells
Put plainly: BRET2 Gi dissociation, V145A. Conditions: V145A (3.36), Gi-coupling, AD293 cells; mean ± S.E.M., n = 3; P 0.9852 vs WT; read-out: BRET2 pEC50 (converted). As to the method:
as §3

The next assay has as its target T7, PrRPR N298A (Homo sapiens, UniProt P49683, N298A).
T7 construct: Flag; expressed in transfected cells; host or cells: AD293 cells
Kind of assay: BRET2 Gi dissociation, N298A. Conditions: N298A (6.55), Gi-coupling, AD293 cells; mean ± S.E.M., n = 3; P 0.0022 vs WT; read-out: BRET2 pEC50 (converted). As for the experimental part:
as §3

SMILES strings stand for the structures. Peptide text beside a SMILES is read from it.

T4 sequence (P49683 whole entry W127A): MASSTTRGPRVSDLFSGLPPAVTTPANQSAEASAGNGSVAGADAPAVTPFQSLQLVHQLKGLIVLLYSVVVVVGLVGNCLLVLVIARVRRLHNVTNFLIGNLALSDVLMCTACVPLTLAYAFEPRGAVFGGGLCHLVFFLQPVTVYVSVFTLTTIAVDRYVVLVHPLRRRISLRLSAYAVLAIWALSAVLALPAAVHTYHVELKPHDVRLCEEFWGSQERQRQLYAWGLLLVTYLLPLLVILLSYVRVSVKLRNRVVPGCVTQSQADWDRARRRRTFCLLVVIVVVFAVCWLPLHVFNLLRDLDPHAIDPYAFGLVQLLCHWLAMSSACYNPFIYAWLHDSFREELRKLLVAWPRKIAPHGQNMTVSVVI
T7 sequence (P49683 whole entry N298A): as the sequence (P49683 whole entry W127A) above, with A127W, N298A counted along it
T3 sequence (P49683 whole entry V208A): as the sequence (P49683 whole entry W127A) above, with A127W, V208A counted along it
T5 sequence (P49683 whole entry Q141A): as the sequence (P49683 whole entry W127A) above, with A127W, Q141A counted along it
T6 sequence (P49683 whole entry V145A): as the sequence (P49683 whole entry W127A) above, with A127W, V145A counted along it
T2 sequence (P49683 whole entry Y120A): as the sequence (P49683 whole entry W127A) above, with Y120A, A127W counted along it

`CC[C@H](C)[C@H](NC(=O)CNC(=O)[C@H](CCCNC(=N)N)NC(=O)[C@H](CO)NC(=O)[C@H](C)NC(=O)[C@H](Cc1ccc(O)cc1)NC(=O)[C@H](Cc1c[nH]c2ccccc12)NC(=O)[C@H](C)NC(=O)[C@@H]1CCCN1C(=O)[C@H](CC(N)=O)NC(=O)[C@@H](NC(=O)[C@H](CC(=O)O)NC(=O)[C@@H]1CCCN1C(=O)[C@@H](N)[C@@H](C)O)[C@@H](C)CC)C(=O)N[C@@H](CCCNC(=N)N)C(=O)N1CCC[C@H]1C(=O)N[C@H](C(=O)NCC(=O)N[C@@H](CCCNC(=N)N)C(=O)N[C@@H](Cc1ccccc1)C(N)=O)C(C)C` [PrRP20] (H-TPDINPAWYASRGIRPVGRF-NH2): the BRET2 span on PrRPR WT stood at 100.00 %WT. The EC50 was 191 nM at PrRPR Y120A; 2.45 nM at PrRPR V208A; 490 nM on PrRPR W127A; 7.59 nM at PrRPR Q141A; 2.63 nM at PrRPR V145A; 6.31 nM on PrRPR N298A.
